ChEMBL document CHEMBL1921682, “Molecular properties prediction and synthesis of novel 1,3,4-oxadiazole analogues as potent antimicrobial and antitubercular agents” (Bioorg Med Chem Lett, 2011)
Values after ≈ are worked out from the molar mass of the structure shown.

Columns and labels:
Staphylococcus aureus = assay: Antibacterial activity against Staphylococcus aureus NCIM 2079 by broth dilution technique; type: functional
Bacillus subtilis = assay: Antibacterial activity against Bacillus subtilis NCIM 2439 by broth dilution technique; type: functional
Escherichia coli = assay: Antibacterial activity against Escherichia coli NCIM 5051 by broth dilution technique; type: functional
Pseudomonas aeruginosa = assay: Antibacterial activity against Pseudomonas aeruginosa ATCC 10145 by broth dilution technique; type: functional
Aspergillus niger = assay: Antifungal activity against Aspergillus niger NCIM 1196 by agar diffusion method; type: functional
Candida albicans = assay: Antifungal activity against Candida albicans NCIM 3417 by agar diffusion method; type: functional
[1] = Octanol-water partition coefficient, log P of the compound; type: physicochemical
[2] = test system: Mycobacterium tuberculosis; assay: microbe, parasite or virus in culture; conditions: H37Rv
Description: Antimycobacterial activity against Mycobacterium tuberculosis H37Rv by agar double dilution technique

| Structure (SMILES) | MIC (Staphylococcus aureus) [µg/mL] | MIC (Bacillus subtilis) [µg/mL] | MIC (Escherichia coli) [µg/mL] | MIC (Pseudomonas aeruginosa) [µg/mL] | MIC (Aspergillus niger) [µg/mL] | MIC (Candida albicans) [µg/mL] | logP [1] | MIC90 [2] [µM] |
| --- | --- | --- | --- | --- | --- | --- | --- | --- |
| Cc1c(NCc2nnc(-c3ccccc3Cl)o2)c(=O)n(-c2ccccc2)n1C | 4 (≈ 10.1 µM) | 4 (≈ 10.1 µM) | 4 (≈ 10.1 µM) | 8 (≈ 20.2 µM) | 256 (≈ 647 µM) | 256 (≈ 647 µM) | 2.72 | 1.97 (≈ 0.78 µg/mL) |
| Cc1c(NCc2nnc(-c3ccc(Cl)cc3)o2)c(=O)n(-c2ccccc2)n1C | 8 (≈ 20.2 µM) | 8 (≈ 20.2 µM) | 4 (≈ 10.1 µM) | 8 (≈ 20.2 µM) | 256 (≈ 647 µM) | 128 (≈ 323 µM) | 2.7 | 3.94 (≈ 1.56 µg/mL) |
| Cc1c(NCc2nnc(-c3ccc(N)cc3)o2)c(=O)n(-c2ccccc2)n1C | 16 (≈ 42.5 µM) | 32 (≈ 85 µM) | 16 (≈ 42.5 µM) | 64 (≈ 170 µM) | 128 (≈ 340 µM) | 128 (≈ 340 µM) | 1.13 | 4.15 (≈ 1.56 µg/mL) |
| Cc1c(NCc2nnc(-c3ccncc3)o2)c(=O)n(-c2ccccc2)n1C | 16 (≈ 44.2 µM) | 16 (≈ 44.2 µM) | 16 (≈ 44.2 µM) | 32 (≈ 88.3 µM) | 256 (≈ 706 µM) | 256 (≈ 706 µM) | 0.8 | 0.78 (≈ 0.283 µg/mL) |
| Cc1c(NCc2nnc(-c3ccccc3O)o2)c(=O)n(-c2ccccc2)n1C | 128 (≈ 339 µM) | 64 (≈ 170 µM) | 128 (≈ 339 µM) | 128 (≈ 339 µM) | 8 (≈ 21.2 µM) | 16 (≈ 42.4 µM) | 1.71 | > 13.2 |
| CC(=O)Oc1ccccc1-c1nnc(CNc2c(C)n(C)n(-c3ccccc3)c2=O)o1 | 512 (≈ 1220 µM) | 256 (≈ 610 µM) | 256 (≈ 610 µM) | 512 (≈ 1220 µM) | 512 (≈ 1220 µM) | 512 (≈ 1220 µM) | 1.98 | > 12.8 |
| Cc1c(NCc2nnc(-c3ccccc3)o2)c(=O)n(-c2ccccc2)n1C | 512 (≈ 1420 µM) | 512 (≈ 1420 µM) | 512 (≈ 1420 µM) | 512 (≈ 1420 µM) | 512 (≈ 1420 µM) | 512 (≈ 1420 µM) | 2.02 | 10 (≈ 3.61 µg/mL) |
| COc1ccc(-c2nnc(CNc3c(C)n(C)n(-c4ccccc4)c3=O)o2)cc1 | > 512 | > 512 | 256 (≈ 654 µM) | > 512 | 16 (≈ 40.9 µM) | 32 (≈ 81.8 µM) | 2.07 | > 12.8 |
| Cc1ccccc1-c1nnc(CNc2c(C)n(C)n(-c3ccccc3)c2=O)o1 | 256 (≈ 682 µM) | 256 (≈ 682 µM) | 256 (≈ 682 µM) | 512 (≈ 1360 µM) | 8 (≈ 21.3 µM) | 16 (≈ 42.6 µM) | 2.38 | > 13.3 |
| Cc1cccc(-c2nnc(CNc3c(C)n(C)n(-c4ccccc4)c3=O)o2)c1 | > 512 | > 512 | 512 (≈ 1360 µM) | > 512 | 128 (≈ 341 µM) | 256 (≈ 682 µM) | 2.39 | > 13.3 |
| Cc1ccc(-c2nnc(CNc3c(C)n(C)n(-c4ccccc4)c3=O)o2)cc1 | 512 (≈ 1360 µM) | 512 (≈ 1360 µM) | 256 (≈ 682 µM) | 512 (≈ 1360 µM) | 4 (≈ 10.7 µM) | 4 (≈ 10.7 µM) | 2.48 | 10 (≈ 3.75 µg/mL) |
| Cc1c(NCc2nnc(Cc3ccccc3)o2)c(=O)n(-c2ccccc2)n1C | 256 (≈ 682 µM) | 256 (≈ 682 µM) | 256 (≈ 682 µM) | 256 (≈ 682 µM) | 512 (≈ 1360 µM) | 512 (≈ 1360 µM) | 1.64 | 10 (≈ 3.75 µg/mL) |
| Cc1c(NCc2nnc(COc3ccccc3)o2)c(=O)n(-c2ccccc2)n1C | 128 (≈ 327 µM) | 128 (≈ 327 µM) | 64 (≈ 164 µM) | 128 (≈ 327 µM) | > 512 | 512 (≈ 1310 µM) | 0.98 | 12.8 (≈ 5 µg/mL) |
| Cc1c(NCc2nnc(-c3cccs3)o2)c(=O)n(-c2ccccc2)n1C | 8 (≈ 21.8 µM) | 16 (≈ 43.5 µM) | 8 (≈ 21.8 µM) | 8 (≈ 21.8 µM) | 128 (≈ 348 µM) | 256 (≈ 697 µM) | 1.9 | 6.81 (≈ 2.5 µg/mL) |
| O=C(O)c1cn(C2CC2)c2cc(N3CCNCC3)c(F)cc2c1=O [CIPROFLOXACIN] | 4 (≈ 12.1 µM) | 4 (≈ 12.1 µM) | – | 4 (≈ 12.1 µM) | – | – | – | – |
| OC(Cn1cncn1)(Cn1cncn1)c1ccc(F)cc1F [FLUCONAZOLE] | – | – | – | – | 2 (≈ 6.53 µM) | 1 (≈ 3.27 µM) | – | – |
| NNC(=O)c1ccncc1 [ISONIAZID] | – | – | – | – | – | – | – | 0.78 (≈ 0.107 µg/mL) |
